Data on one substance can be found in patent US20050124594A1, “Method of treatment” (priority 1998, published 2005).

Data set [1] deals with choroidal neovascularisation (CNV). The experiment in a line: Case report: prophylactic triamcinolone to the orbital floor at cataract surgery in a high risk eye. In kind it is in vivo, human. The text has this: A patient in whom prophylactic treatment was used was a person. There was marked macula degeneration in both eyes. They underwent cataract surgery late in July 1995 and developed neovascularisation of the right macula within three weeks. They also had cataract in the left eye but surgery was deferred for fear of developing the same complication. In the left macula there were greater than 5 drusen, some of them larger than 500 μm, and coarse pigment clumping, all high risk features. The cataract in the left eye continued to advance. By August 1997 it was very dense, reducing the visual acuity to 6/24. In spite of the high risk of neovascularisation, they underwent surgery in October 1997. As a prophylactic measure to reduce the risk of subsequent CNV, they received 40 mg of triamcinolone to the orbital floor beneath the eye at the time of surgery. The visual acuity improved to 6/12. They progressed well until June 1998 when they developed left CNV. By this time the effect of the triamcinolone had worn off.

Data set [2] has the same test system. In words: Illustrative case: intravitreal steroid treatment for the prevention of neovascularisation in a patient at high risk. The format is in vivo, human. Here is the method: This case illustrates how intravitreal steroid treatment might be used to prevent CNV in a high risk eye.
A patient presents with recent loss of vision in their right eye. Retinal haemorrhages and exudation are seen in the right macula. […] This is treated on its merits, but the patient is already legally blind (visual acuity less than 6/60) and likely to remain so.
The patient is otherwise healthy and looks as if they might well live another ten or twenty years.
It is explained to the patient that it has been well shown that the risk of developing neovascularisation in their left eye is roughly 90% over the next five years. Should this occur, the chance of saving reading and driving vision with conventional treatments would be less than 25%. The patient is informed that, since the formation of new blood vessels appears in this disease to be linked to chronic, low grade inflammation inside the eye, we believe that an injection of steroid into the eye may reduce the risk of developing neovascularisation in their left eye. […] Serious side effects of the injection are rare. The patient returns in one week, having considered their options, and elects to receive the treatment.
The patient's left eye is anaesthetised and sterilised with topical medications. An injection into the vitreous of 4 mg of triamcinolone (0.1 mL of a 40 mg/mL solution) is performed. The patient is reviewed at 1 and 6 weeks after the injection, then at 3, 6 and 12 months. […] A second injection of triamcinolone is instilled, with the patients consent, and they are reviewed with the same frequency as after the first injection. Two years after the first injection the patient's visual acuity remains 6/9. Further treatments are deferred and the patient is reviewed every 6 months.

Data set [3] in a line: Clinical observations of side effects of intravitreal triamcinolone. In kind it is in vivo, human. An excerpt:
Intravitreal triamcinolone presents a manageable side effect profile. Of the several hundred patients treated through the Sydney Eye Hospital over the last three years, no case of endophthalmitis, retinal detachment or vitreous haemorrhage has been reported. The commonest side effect is a modest elevation of the intraocular pressure of around 5 mmHg. This has been controlled with glaucoma medication where necessary, although if the optic nerve is not compromised and the pressure is less than 25 mmHg it is often reasonable to observe without treatment. The pressure invariably returns to normal after the drug wears off, which is usually after approximately 6 months.

The subject of data set [4] is choroidal neovascularisation in age-related macular degeneration. The conditions noted are these: introduced into the vitreous; cited from earlier work.
The mark [5] stands for this setting: 12 months after intravitreal injection of 4 mg.

As to “9-fluoro-11,21-dihydroxy-16,17-[1-(methylethylidine)bis (oxy)]pregna-1,4-diene-3,20-dione [triamcinolone]”, the “formation of CNV after surgery” value in data set [1] (40 mg to the orbital floor October 1997, left CNV developed June 1998) is reported as “delayed the formation of CNV after surgery”. Also, in data set [1] (person, left eye, 40 mg to the orbital floor at surgery, acuity 6/24 before surgery), the “visual acuity after cataract surgery” value is recorded as 6/12. For the same substance, in data set [2] (setting [5]), the “complications of the procedure” value was “no complications of the procedure have ensued” and the evidence of neovascularisation entry was “without evidence clinically or angiographically of neovascularisation”. Moreover, in data set [2] (12 months after intravitreal injection of 4 mg, baseline 6/9), the visual acuity is 6/9. The visual acuity in data set [2] (two years after the first injection, second injection at 12 months) is given as 6/9. Also, in data set [3] (follow-up to 18 months), the “cataract in the treated eye” value is “this has not been a problem”. In addition, the “elevation of the intraocular pressure (commonest side effect)” value in data set [3] (intravitreal) was “around 5 mmHg”. The “endophthalmitis, retinal detachment or vitreous haemorrhage” value in data set [3] (several hundred patients treated intravitreally over three years) was “no case”. For the same substance, in data set [4], the exudation entry is “control and resorbtion of exudation”; the “resident immune cell activity” value was “modulates the resident immune cell activity”; the visual acuity entry is recorded as “improved visual acuity”.
